Assay results taken from patent US8911705B2, “Diagnostic substance and method for the analysis of metabolism processes in the brain” (Leibniz-Institut fuer Neurobiologie Stiftung des …, priority 2005, dated 2014).

Key:
experimental animals = conditions: high thallium acetate doses needed for the method; animals sacrificed 15 minutes after administration; cited from earlier work
brain = conditions: cited from earlier work
[1] = test system: brain of rat after focal cerebral ischemia
Source text: Thallium is a potassium tracer and can detect changes in potassium metabolism, as occur, e.g., in brain infarcts, brain tumors, or degenerative diseases.
Shown are frontal sections in the plane of the anterior commissure (A, D) and images of the same sections (B, E).
The thallium is taken up essentially by the sodium-potassium pump and transport systems regulated by it and is thus energy-dependent. […] Scale bar in A: 500 μm, in B: 50 μm, in C: 25 μm, in D: 10 μm, in E: 25 μm and in F: 100 μm.

CC(=O)[O-].[Tl+] [thallium acetate]
toxicity of the thallium dose used (experimental animals): deadly

CCN(CC)C(=S)[S][201Tl] [Tl-DDC, thallium-201 diethyldithiocarbamate]
cerebral uptake (brain): good cerebral uptake | decomposition in the brain (brain): decomposes spontaneously in the brain | staining intensity (thallium) in infarct core ([1]; 15 minutes after focal cerebral ischemia (hyperacute stage), infarct core): clearly reduced staining intensity | staining intensity (thallium) in zone surrounding infarct core ([1]; 15 minutes after focal cerebral ischemia, zone surrounding core vs contralateral side): clearly lower than in the undamaged contralateral side | differences in thallium distribution ipsilateral and contralateral to the occluded vessel ([1]; 7 days after focal cerebral ischemia (late time point)): less pronounced | thallium staining of astrocytes in the infarct core ([1]; hyperacute stage of cerebral ischemia, astrocytes): intensively stained | thallium detection in neurons of the infarct core ([1]; hyperacute stage of cerebral ischemia, neurons): cannot be detected

technetium-99m-diethyldithiocarbamate [^99 mTc-DDC]
cerebral uptake (brain): good cerebral uptake | decomposition in the brain (brain): essentially lower rate of decomposition in the brain | retention in the brain (brain): retained there to a lesser extent
